# Results from patent US11286463B2, “Reprogramming of aged adult stem cells” (priority 2012, dated 2022).
# System: 84 genes reported to be linked to cellular aging, epigenetics and senescence
# Assay: qPCR gene array of AASC in transwell culture with YASC
# Format: cell-based, human
# Conditions: 5 μM manumycin
# Protocol: In an embodiment, the methods of the present disclosure further comprise exposure of AASCs to the Intracellular Matrix (ICM) of the YASCs through placement of a transwell culture insert containing YASC into the tissue culture dish chamber. Mobilized PBMCs (1×10^7) from the second subjects are added to the outer well of 12-well transwell cultures containing a […] BD Falcon™ insert. Any membrane insert able to provide a cell-free filtrate to cultures of AASCs may be employed. In parallel, mobilized PBMCs (1×10^7) from the first subjects are added to the inner well of the 12-well plate. Cells may then be cultivated in a suitable media (e.g., RPMI-1640 (Gibco) supplemented with 10% fetal calf serum (FCS) and β-mercaptoethanol (β-ME)) for a time period of the type disclosed herein (e.g., 8-weeks), under standard culture conditions (e.g., 50% media changed every 4 days).
# For experiments investigating the contribution of exosomes as the membrane-permeable factors responsible for AASC reprogramming (i.e reprogramming agents), the exosomal inhibitor manumycin A (Sigma-Aldrich) can be added to the culture media at a final concentration of 5 μM at days 0 and 14 of the cultivation period.
# AASC reprogramming was carried out using the one-step process depicted in the middle workflow of FIGS. 1 and 2. […]
compound,measurement,value
"CCCC[C@@H](C)/C=C(C)/C=C(\C)C(=O)NC1=C[C@@](O)(/C=C/C=C/C=C/C(=O)NC2=C(O)CCC2=O)[C@@H]2O[C@@H]2C1=O [manumycin, -[(1S,5S,6R)-5-hydroxy-5-[(1E,3E,5E)-7-[(2-hydroxy-5-oxo-1-cyclopenten-1-yl)amino]-7-oxo-1,3,5-heptatrien-1-yl]-2-oxo-7-oxabicyclo[4.1.0]hept-3-en-3-yl]-2E,4E,6R-trimethyl,2,4-decadienamide]",gene expression levels of AASC co-cultured with YASC compared to absence of manumycin,displayed changes in gene expression levels
